Experimental data as given in publication PMC6418145 (Scientific Reports, 2019).

Legend:
hM4Di = biological target: T1, hM4Di (Homo sapiens, UniProt P08173, A203G/Y113C); assay: FLIPR Ca2+ oscillation assay in primary rat neuronal cultures transduced with hM4Di; format: cell-based
T1 construct: expressed in transfected cells; host or cells: primary cortical neurons of embryonic (E18) Sprague-Dawley rats, AAV-transduced
T1 sequence (P08173 1-479 Y113C/A203G): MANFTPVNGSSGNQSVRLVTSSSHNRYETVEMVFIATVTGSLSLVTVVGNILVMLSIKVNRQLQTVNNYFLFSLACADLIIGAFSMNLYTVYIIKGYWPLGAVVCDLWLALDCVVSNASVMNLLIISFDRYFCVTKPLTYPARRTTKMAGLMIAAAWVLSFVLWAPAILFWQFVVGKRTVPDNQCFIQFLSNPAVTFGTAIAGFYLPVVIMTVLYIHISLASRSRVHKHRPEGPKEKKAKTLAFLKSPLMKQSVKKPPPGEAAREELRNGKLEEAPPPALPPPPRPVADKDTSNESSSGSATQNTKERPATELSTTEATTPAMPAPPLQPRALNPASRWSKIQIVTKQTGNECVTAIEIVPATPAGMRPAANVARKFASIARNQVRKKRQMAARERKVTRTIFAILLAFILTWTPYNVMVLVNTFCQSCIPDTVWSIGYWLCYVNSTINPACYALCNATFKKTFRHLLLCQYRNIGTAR
Method: Briefly, cortices were dissected from embryonic brains, meninges were removed, and cortices transferred into ice-cold dissociation buffer (2 mM kynurenic acid, 10 mM HEPES, 20 mM MgCl2 (Fluka, Germany) and 33.4 mM Glucose in Hank’s Balanced Salt Solution (HBSS), pH 7.4 (Gibco, Thermo Fischer Scientific, Massachusetts, USA). Cortices were then dissociated in 20 units/ml papain solution (5.5 mM L- Cysteine hydrochloride, 1.1 mM ethylenediamine tetra-acetic acid [EDTA], 0.067 mM 2-Mercaptoethanol in Minimum Essential Medium [MEM]) for 15 min at 37 °C. Cortices were washed twice by adding 20 ml plating medium (1:50 foetal calve serum, 1:100 penicillin/streptomycin and 1:100 GlutaMax in MEM) followed by cell filtration using a 70 µm cell strainer (Corning, model #352350, Merck, Germany) to obtain a single-cell suspension. Dissociated cells were re-suspended in serum-free Neurobasal medium with Glutamax and B27 supplement (Gibco) and plated on PDL-coated 96 MTPs (Corning #356640). Virus (ssAAV-1/2-hSyn1-hM4D[Gi]_mCherry-WPRE-hGHp[A]) transduction was performed immediately after plating. Cells were maintained at 37 °C (5% CO2 and 10% O2) in a humidified incubator. A half feed medium change was done on DIV8. Final assay conditions used for evaluating activity of compounds were 0.95 × 10^5 cells/cm^2, transduced with 10.000 multiplicity of infection and measured on DIV9.
Medium was removed and cells were incubated in assay buffer (HBSS, Gibco, 10 mM HEPES, pH 7.4) containing 4 µM Fluo-4AM (Thermo Fischer Scientific) and 0.1% Pluronic F-127 (Thermo Fischer Scientific #P3000MP) for 1 h at room temperature in the dark. Loading buffer was then replaced with assay buffer. After 10 min, assay plates were measured in the FLIPR tetra (Molecular Devices, California, USA) using green fluorescence filter settings (excitation 470–495 nm, emission 515–575 nm). Fluorescence signals were recorded at 1 s intervals (0.4 s exposure time). Compound addition was automated in a single addition protocol. Tested compounds (concentrations:0.3 nM–1 µM; retigabine at 30 µM) were added after recording a baseline response for 5 min followed by another 5 min for recording compound effects on Ca^2+ oscillations. Each compound dose was repeated on three individual plates in duplicates.
Time-series raw fluorescence traces recorded from the FLIPR assay were analysed by detecting Ca^2+ peaks based on a fixed amplitude threshold[19]. The change in oscillation frequency was determined by counting the number of peaks in a defined time interval (5 min) before and after addition of the tested compound and calculating the Ca^2+ oscillations frequency from their number. […] For visualisation, all data were transferred to GraphPad Prism 7 (Graphpad Software, Inc., CA, USA).

α1A adrenoreceptor = biological target: T2, α1A adrenoreceptor (Homo sapiens, UniProt P35348); assay: Off-target radioligand binding; conditions: 10 μM compound
T2 construct: expressed in transfected cells; host or cells: HEK-293 or CHO

H1 histamine receptor = biological target: T3, H1 histamine receptor (Homo sapiens, UniProt P35367); assay: Off-target radioligand binding
T3 construct: expressed in transfected cells; host or cells: HEK-293 or CHO

M1 muscarinic receptor = biological target: T4, M1 muscarinic receptor (Homo sapiens, UniProt P11229); assay: Off-target radioligand binding; conditions: 10 μM compound
T4 construct: expressed in transfected cells; host or cells: HEK-293 or CHO

[1] = biological target: T5, 5-HT1A serotonin receptor (Homo sapiens, UniProt P08908); assay: Off-target radioligand binding; conditions: 10 μM compound
T5 construct: expressed in transfected cells; host or cells: HEK-293 or CHO

[2] = tested on: 5-HT1B serotonin receptor; assay: Off-target radioligand binding; design: species or system human; conditions: 10 μM compound
[3] = biological target: T6, 5-HT2B serotonin receptor (Homo sapiens, UniProt P41595); assay: Off-target radioligand binding
T6 construct: expressed in transfected cells; host or cells: HEK-293 or CHO

PDE4D2 = PDE4D2 (Homo sapiens, UniProt Q08499); assay: Off-target enzyme assay; format: biochemical; conditions: 10 μM compound, not shown
PDE4D2, sequence (Q08499 303-809): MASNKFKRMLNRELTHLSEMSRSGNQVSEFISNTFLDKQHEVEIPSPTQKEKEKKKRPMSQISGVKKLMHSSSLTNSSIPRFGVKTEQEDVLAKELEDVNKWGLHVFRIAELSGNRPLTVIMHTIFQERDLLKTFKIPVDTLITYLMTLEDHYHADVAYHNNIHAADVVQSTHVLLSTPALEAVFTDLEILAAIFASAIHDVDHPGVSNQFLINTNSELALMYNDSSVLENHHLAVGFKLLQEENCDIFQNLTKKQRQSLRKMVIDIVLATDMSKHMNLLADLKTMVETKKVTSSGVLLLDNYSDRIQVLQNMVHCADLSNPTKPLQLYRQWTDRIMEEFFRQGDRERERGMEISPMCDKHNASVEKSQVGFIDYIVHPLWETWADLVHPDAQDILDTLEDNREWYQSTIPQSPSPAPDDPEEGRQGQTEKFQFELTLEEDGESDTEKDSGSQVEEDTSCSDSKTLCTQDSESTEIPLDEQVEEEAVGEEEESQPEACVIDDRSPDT

T3 sequence (P35367 whole entry): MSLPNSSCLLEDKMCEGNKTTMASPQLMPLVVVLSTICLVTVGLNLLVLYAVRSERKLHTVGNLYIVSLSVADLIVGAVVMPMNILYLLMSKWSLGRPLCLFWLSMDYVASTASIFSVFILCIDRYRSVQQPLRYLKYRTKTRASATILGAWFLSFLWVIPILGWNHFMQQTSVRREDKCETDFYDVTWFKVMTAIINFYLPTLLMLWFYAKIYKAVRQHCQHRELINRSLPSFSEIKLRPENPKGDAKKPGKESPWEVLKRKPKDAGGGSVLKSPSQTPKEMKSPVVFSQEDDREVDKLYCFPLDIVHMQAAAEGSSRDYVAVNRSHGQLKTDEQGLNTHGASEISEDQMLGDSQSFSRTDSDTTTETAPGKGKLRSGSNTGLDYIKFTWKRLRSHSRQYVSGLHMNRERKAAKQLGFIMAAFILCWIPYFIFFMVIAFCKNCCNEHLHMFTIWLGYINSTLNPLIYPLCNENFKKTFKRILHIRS
T6 sequence (P41595 whole entry): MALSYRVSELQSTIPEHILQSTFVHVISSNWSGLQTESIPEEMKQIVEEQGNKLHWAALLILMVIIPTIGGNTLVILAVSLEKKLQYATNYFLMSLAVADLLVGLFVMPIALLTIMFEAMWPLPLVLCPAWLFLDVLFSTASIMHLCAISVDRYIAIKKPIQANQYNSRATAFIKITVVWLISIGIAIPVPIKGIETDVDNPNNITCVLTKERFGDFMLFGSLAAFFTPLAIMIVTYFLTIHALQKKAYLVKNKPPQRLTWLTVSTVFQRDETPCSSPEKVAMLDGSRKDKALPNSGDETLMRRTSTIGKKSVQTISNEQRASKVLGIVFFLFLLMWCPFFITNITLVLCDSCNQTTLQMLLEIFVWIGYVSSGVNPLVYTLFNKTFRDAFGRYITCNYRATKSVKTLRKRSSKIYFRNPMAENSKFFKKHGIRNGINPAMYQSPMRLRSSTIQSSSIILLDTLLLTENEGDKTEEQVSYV
T2 sequence (P35348 whole entry): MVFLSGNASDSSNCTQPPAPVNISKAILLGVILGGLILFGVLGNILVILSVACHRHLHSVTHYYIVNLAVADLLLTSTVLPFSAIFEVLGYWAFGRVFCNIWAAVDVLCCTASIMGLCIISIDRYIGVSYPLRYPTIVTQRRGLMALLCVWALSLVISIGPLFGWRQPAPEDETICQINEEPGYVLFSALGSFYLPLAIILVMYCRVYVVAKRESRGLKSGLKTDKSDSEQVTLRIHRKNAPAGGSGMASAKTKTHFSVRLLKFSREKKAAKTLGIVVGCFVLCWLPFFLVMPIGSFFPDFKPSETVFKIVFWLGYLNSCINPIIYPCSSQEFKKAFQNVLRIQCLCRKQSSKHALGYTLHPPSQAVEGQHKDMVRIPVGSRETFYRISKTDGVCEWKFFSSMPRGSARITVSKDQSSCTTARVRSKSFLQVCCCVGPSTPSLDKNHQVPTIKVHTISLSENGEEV
T5 sequence (P08908 whole entry): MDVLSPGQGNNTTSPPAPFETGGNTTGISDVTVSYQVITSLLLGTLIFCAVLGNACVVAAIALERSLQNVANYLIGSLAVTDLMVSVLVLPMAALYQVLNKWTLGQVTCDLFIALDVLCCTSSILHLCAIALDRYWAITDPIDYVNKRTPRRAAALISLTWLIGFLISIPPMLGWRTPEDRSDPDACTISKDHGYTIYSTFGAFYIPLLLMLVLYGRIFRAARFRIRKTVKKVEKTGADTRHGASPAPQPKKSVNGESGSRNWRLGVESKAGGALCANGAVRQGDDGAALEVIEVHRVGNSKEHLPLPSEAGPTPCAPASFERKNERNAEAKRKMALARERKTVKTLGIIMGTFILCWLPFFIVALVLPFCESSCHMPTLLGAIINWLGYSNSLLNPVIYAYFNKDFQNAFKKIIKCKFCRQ
T4 sequence (P11229 whole entry): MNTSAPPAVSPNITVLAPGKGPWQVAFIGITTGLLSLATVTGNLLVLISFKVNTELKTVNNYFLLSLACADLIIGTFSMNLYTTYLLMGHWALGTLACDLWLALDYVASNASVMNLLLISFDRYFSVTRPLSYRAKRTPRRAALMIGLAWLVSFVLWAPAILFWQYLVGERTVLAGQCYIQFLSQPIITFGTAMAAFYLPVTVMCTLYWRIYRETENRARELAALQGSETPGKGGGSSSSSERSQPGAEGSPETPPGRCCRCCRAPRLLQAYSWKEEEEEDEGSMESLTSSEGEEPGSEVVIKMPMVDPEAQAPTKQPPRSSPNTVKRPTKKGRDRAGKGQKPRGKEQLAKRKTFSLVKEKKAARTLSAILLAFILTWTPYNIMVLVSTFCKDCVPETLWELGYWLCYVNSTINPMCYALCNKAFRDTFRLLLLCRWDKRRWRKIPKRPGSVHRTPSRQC

C[N+]1([O-])CCN(C2=Nc3cc(Cl)ccc3Nc3ccccc32)CC1 [CNO, clozapine-N-oxide]
times less potent than CLZ at hM4Di (hM4Di; ratio of EC50 values): ~20 times | times less potent than Cmpd-21 at hM4Di (hM4Di; ratio of EC50 values): approximately 2.7 times | EC50 (hM4Di; reduction of Ca2+ oscillation frequency, hM4Di-transduced rat primary neurons, Hill fit, read-out: half maximal effective concentration (EC50) at hM4Di): 8.1 nM | competitive inhibition of ligand binding (α1A adrenoreceptor): over 50% | competitive inhibition of ligand binding (H1 histamine receptor; 10 μM compound): over 50% | Ki (H1 histamine receptor; bound stated in discussion): < 100 nM | competitive inhibition of ligand binding (M1 muscarinic receptor): over 50% | competitive inhibition of ligand binding [1]: over 50% | competitive inhibition of ligand binding [2]: over 50% | competitive inhibition of ligand binding ([3]; 10 μM compound): over 50% | Ki ([3]; bound stated in discussion): < 100 nM | inhibition (PDE4D2): < 20%
